Reference: US10709692B2, “Isoxazolidine derived inhibitors of receptor interacting protein kinase 1 (RIPK1)” (Denali Therapeutics Inc., priority 2015, dated 2020)
Several values for one entry are separate records, joined by “and”; a condition that tells them apart may be missing. Equal values may be shown once.

Each compound was assayed against T1, receptor interacting protein kinase 1 (GST-hRIPK1 (8-327)) (Homo sapiens, UniProt Q13546) (assay: Fluorescent Polarization Binding (FP Binding) assay). Settings: 10 nM GST-hRIPK1 (8-327), 5 nM fluorescent-labeled ligand, 30 min at RT.
T1 construct: GST-hRIPK1 (8-327) enzyme was generated by Proteros GmbH by Baculovirus expression system
T1 sequence (Q13546 8-327): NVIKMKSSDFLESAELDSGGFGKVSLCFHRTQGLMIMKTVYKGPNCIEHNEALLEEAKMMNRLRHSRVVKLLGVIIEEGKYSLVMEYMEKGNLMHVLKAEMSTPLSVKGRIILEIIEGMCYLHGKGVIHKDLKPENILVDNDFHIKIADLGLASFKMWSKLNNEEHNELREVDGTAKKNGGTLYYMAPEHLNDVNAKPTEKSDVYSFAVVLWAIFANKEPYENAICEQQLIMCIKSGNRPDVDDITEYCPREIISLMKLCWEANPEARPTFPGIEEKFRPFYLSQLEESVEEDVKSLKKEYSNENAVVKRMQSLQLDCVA
Description: Fluorescent Polarization Binding (FP Binding) assay (Berger S. B. et al. (2015) Cell Death Discovery, 1: 15009; Maki J. L. et al. (2012) Anal Biochem., 427(2): 164-174) was performed in polystyrene low volume 384-well black plate, at Room Temperature (RT) in a final volume of 10.1 μl/well using 10 nM of GST-hRIPK1 (8-327) enzyme and 5 nM of fluorescent-labeled ligand (14-(2-{[3-({2-{[4-(cyanomethyl)phenyl]amino}-6-[(5-cyclopropyl-1H-pyrazol-3-yl)amino]-4-pyrimidinyl}amino) propyl]amino}-2-oxoethyl)-16,16,18,18-tetramethyl-6,7,7a,8a,9,10,16,18-octahydrobenzo[2″3″]indolizino[8″, 0.7″:5′,6′]pyrano[3′,2′:3,4]pyrido[1,2-a]indol-5-ium-2-sulfonate.
Test compounds were serially diluted in DMSO at 100 fold final concentrations in the assay (1% DMSO final). In each well of a 384-well Plate were dispensed 0.1 μL of compound solution (or DMSO for controls) followed by 5 μL of GST-hRIPK1 (8-327) at twice the final concentrations in assay-buffer (50 mM HEPES pH 7.5, 10 mM NaCl, 50 mM MgCl2, 0.02% CHAPS, 0.5 mM DTT and 0.01% Pluronic F127). For negative control the enzyme addition was replaced by assay buffer only.
After addition of 5 μL of fluorescent-labeled ligand at twice the final concentrations in assay buffer, the plate was incubated at RT for 30 min. At the end, the binding was measured as FP value with the Envision (PerkinElmer) plate reader using filter for an excitation λ=531 nm FP and an emission λ=595 nm FP (S & P-pol).
Test compound inhibition was expressed as percent inhibition of internal assay controls. For concentration response curves, normalized data is fit and IC50 determined using XL-fit (IDBS) for Excel. IC50 were averaged to determine a mean value, for a minimum of two independent experiments.
Receptor interacting protein kinase 1 activity of exemplary compounds was determined according to the above general procedures.
Receptor interacting protein kinase 1 activity of certain compounds was determined according to the above general procedures.

SMILES	IC50
CC1(C(=O)N2OCC[C@H]2c2ccc(F)cc2)CCCOC1 (single isomer, unassigned) [Compound 36]	< 1000 nM
O=C(C1CCO1)N1OCC[C@H]1c1ccccc1 (single isomer, unassigned) [Compound 52]	> 10000 nM
O=C(C1CCO1)N1OCC[C@H]1c1ccccc1 (single isomer, unassigned) [Compound 53]	1000 to 10000 nM
CC(C(=O)N1OCCC1c1ccc(C#N)cc1)C(F)F (single isomer, unassigned) [Compound 91]	< 1000 nM
CC(C(=O)N1OCCC1c1ccc(C#N)cc1)C(F)F (single isomer, unassigned) [Compound 92]	< 1000 nM
CC(C(=O)N1OCC[C@H]1c1ccc(F)cc1)C(F)(F)F (single isomer, unassigned) [Compound 95]	< 1000 nM
[2H]C1([2H])C[C@@H](c2ccc(C#N)cc2)N(C(=O)C(C)(C)C)O1 (single isomer, unassigned) [Compound 98]	< 1000 nM
C[C@@H]1C[C@@H](c2ccc(C#N)cc2)N(C(=O)C(C)(C)C)O1 (single isomer, unassigned) [Compound 100]	< 1000 nM
CC(C)(C)C(=O)N1OCC[C@@H]1c1cc(F)cc(F)c1 (single isomer, unassigned) [Compound 102]	< 1000 nM
CC(C)(C)C(=O)N1OCC[C@H]1c1cc(F)cc(F)c1 (single isomer, unassigned) [Compound 103]	< 1000 nM
Cc1cncc([C@@H]2CCON2C(=O)C(C)(C)C)n1 (single isomer, unassigned) [Compound 107]	< 1000 nM
CC(C)(C)C(=O)N1OCC[C@H]1c1cc(F)cc(C#N)c1 (single isomer, unassigned) [Compound 109]	< 1000 nM and 7 nM
CC1(C(=O)N2OCC[C@H]2c2ccc(F)nc2)CC1(F)F (single isomer, unassigned) [Compound 112]	< 1000 nM
CC1(C(=O)N2OCC[C@H]2c2ccc(F)cc2)CC1(F)F (single isomer, unassigned) [Compound 115]	< 1000 nM
CC(C(=O)N1OCC[C@H]1c1ccc(F)nc1)C1CC1 (single isomer, unassigned) [Compound 116]	< 1000 nM
Cc1cnc([C@@H]2CCON2C(=O)C(C)C(F)(F)F)cn1 (single isomer, unassigned) [Compound 130]	< 1000 nM

SMILES	IC50
CC1(C(=O)N2OCC[C@H]2c2ccc(F)cc2)CCCO1 (single isomer, unassigned) [Compound 136]	1000 to 10000 nM
CC1(C(=O)N2OCC[C@H]2c2ccc(F)cc2)CCCO1 (single isomer, unassigned) [Compound 137]	1000 to 10000 nM
CC1(C(=O)N2OCC[C@H]2c2ccc(F)nc2)CCOC1 (single isomer, unassigned) [Compound 142]	< 1000 nM
CC(C(=O)N1OCC[C@H]1c1ccc(F)nc1)C(F)(F)F (single isomer, unassigned) [Compound 162]	< 1000 nM
CC(OC(F)(F)F)C(=O)N1OCC[C@H]1c1ccc(F)nc1 (single isomer, unassigned) [Compound 184]	< 1000 nM
CC(OC(F)(F)F)C(=O)N1OCC[C@H]1c1ccc(F)nc1 (single isomer, unassigned) [Compound 185]	1000 to 10000 nM
Cc1noc(C)c1C(C)C(=O)N1OCC[C@H]1c1ccc(F)cc1 (single isomer, unassigned) [Compound 186]	1000 to 10000 nM
CC1(C(=O)N2OCC[C@H]2c2ccc(F)c(F)c2)CCOC1 (single isomer, unassigned) [Compound 211]	< 1000 nM
CC(C(=O)N1OCC[C@H]1c1ccc(C#N)cc1)C1CC1 (single isomer, unassigned) [Compound 213]	< 1000 nM
CC(C(=O)N1OCC[C@H]1c1ccc(C#N)cc1)C1CC1 (single isomer, unassigned) [Compound 214]	< 1000 nM
CC1CC1C(=O)N1OCC[C@H]1c1ccc(C#N)cc1 (single isomer, unassigned) [Compound 215]	< 1000 nM
CC1CC1C(=O)N1OCC[C@H]1c1ccc(C#N)cc1 (single isomer, unassigned) [Compound 216]	1000 to 10000 nM
Cc1ncc([C@@H]2CCON2C(=O)C(C)C2CC2)cc1F (single isomer, unassigned) [Compound 217]	< 1000 nM
Cc1ncc([C@@H]2CCON2C(=O)C(C)C2CC2)cc1F (single isomer, unassigned) [Compound 218]	< 1000 nM
CC(CC(F)(F)F)C(=O)N1OCC[C@H]1c1ccc(C#N)cc1 (single isomer, unassigned) [Compound 230]	< 1000 nM
CC(CC(F)(F)F)C(=O)N1OCC[C@H]1c1ccc(C#N)cc1 (single isomer, unassigned) [Compound 231]	< 1000 nM

The remaining lines, values ahead:

IC50	SMILES
< 1000 nM	CC1(C(=O)N2OCC[C@H]2c2ccc(F)cc2)CCCOC1 (single isomer, unassigned) [Compound 35]
< 1000 nM	CC1(C(=O)N2OCC[C@H]2c2ccc(F)cc2)CCOC1 (single isomer, unassigned) [Compound 40]
< 1000 nM	CC1(C(=O)N2OCC[C@H]2c2ccc(F)cc2)CCOC1 (single isomer, unassigned) [Compound 41]
< 1000 nM and 28 nM	CC(C)(C)C(=O)N1OCC[C@H]1c1ccc(F)nc1 (single isomer, unassigned) [Compound 61]
1000 to 10000 nM	CC(C)(C)C(=O)N1OCC[C@@H]1c1ccc(F)nc1 (single isomer, unassigned) [Compound 62]
> 10000 nM	CC(C)(C)C(=O)N1OCCC1c1ccc(F)cc1 (single isomer, unassigned) [Compound 74, 1-[3-(4-Fluorophenyl)-1,2-oxazolidin-2-yl]-2,2-dimethylpropan-1-one]
< 1000 nM	CC(C(=O)N1OCC[C@H]1c1ccc(F)cc1)C(F)(F)F (single isomer, unassigned) [Compound 94]
< 1000 nM	C[C@H]1C[C@@H](c2ccc(C#N)cc2)N(C(=O)C(C)(C)C)O1 (single isomer, unassigned) [Compound 99]
< 1000 nM	CC1(C(=O)N2OCC[C@H]2c2ccc(F)nc2)CC1(F)F (single isomer, unassigned) [Compound 113]
< 1000 nM	CC1(C(=O)N2OCC[C@H]2c2ccc(F)cc2)CC1(F)F (single isomer, unassigned) [Compound 114]
< 1000 nM	CC(C(=O)N1OCC[C@H]1c1ccc(F)nc1)C1CC1 (single isomer, unassigned) [Compound 117]
< 1000 nM	Cc1cnc([C@@H]2CCON2C(=O)C(C)C(F)(F)F)cn1 (single isomer, unassigned) [Compound 129]
< 1000 nM	CC1(C(=O)N2OCC[C@H]2c2ccc(F)nc2)CCOC1 (single isomer, unassigned) [Compound 141]
< 1000 nM	CC(C(=O)N1OCC[C@H]1c1ccc(F)nc1)C(F)(F)F (single isomer, unassigned) [Compound 163]
< 1000 nM	CC(C(=O)N1OCC[C@H]1c1ccc(C#N)cc1)C(F)(F)F (single isomer, unassigned) [Compound 179]
< 1000 nM	CC(C(=O)N1OCC[C@H]1c1ccc(C#N)cc1)C(F)(F)F (single isomer, unassigned) [Compound 180]
< 1000 nM	CC(OC(F)(F)F)C(=O)N1OCC[C@H]1c1ccc(F)cc1 (single isomer, unassigned) [Compound 183]
< 1000 nM	CC(C(=O)N1OCC[C@H]1c1ccc(F)cc1)C(F)F (single isomer, unassigned) [Compound 188]
< 1000 nM	CC(C(=O)N1OCC[C@H]1c1ccc(F)cc1)C(F)F (single isomer, unassigned) [Compound 189]
< 1000 nM	CC(CC#N)C(=O)N1OCC[C@H]1c1ccc(C#N)cc1 (single isomer, unassigned) [Compound 209]
1000 to 10000 nM	CC(CC#N)C(=O)N1OCC[C@H]1c1ccc(C#N)cc1 (single isomer, unassigned) [Compound 210]
< 1000 nM	CC1(C(=O)N2OCC[C@H]2c2ccc(F)c(F)c2)CCOC1 (single isomer, unassigned) [Compound 212]
< 1000 nM	CC(CC(F)F)C(=O)N1OCC[C@H]1c1ccc(C#N)cc1 (single isomer, unassigned) [Compound 232]
